From ChEMBL document CHEMBL1201862, “PubChem BioAssay data set” (2004)
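Exposure lasted 48 hours, with cells grown in 96-well plates and compounds tested at five concentrations. The concentration for 50% growth inhibition is given as GI50.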 Calls of active or inactive are those of the source. Rule as the data show it: active = GI50 up to about 1.1 µM and inactive = higher.

Experiments:
Assay in all cases: NCI tumour cell line growth inhibition, 48 h
786-0 = tested on: 786-0
BT-549 = tested on: BT-549
COLO 205 = tested on: COLO 205
HCT-15 = tested on: HCT-15
HOP-62 = tested on: HOP-62
HOP-92 = tested on: HOP-92
Hs-578T = tested on: Hs-578T
NCI-H23 = tested on: NCI-H23
PC-3 = tested on: PC-3
SF-268 = tested on: SF-268
SF-295 = tested on: SF-295
SK-MEL-2 = tested on: SK-MEL-2
SK-MEL-5 = tested on: SK-MEL-5
SN12C = tested on: SN12C
SW-620 = tested on: SW-620
T47D = tested on: T47D
TK-10 = tested on: TK-10
UACC-257 = tested on: UACC-257
UACC-62 = tested on: UACC-62

SMILES	GI50 (786-0)	GI50 (BT-549)	GI50 (COLO 205)	GI50 (HCT-15) [µM]	GI50 (HOP-62)	GI50 (HOP-92)	GI50 (Hs-578T)	GI50 (NCI-H23)	GI50 (PC-3)	GI50 (SF-268)	GI50 (SF-295)	GI50 (SK-MEL-2)	GI50 (SK-MEL-5)	GI50 (SN12C)	GI50 (SW-620)	GI50 (T47D)	GI50 (TK-10)	GI50 (UACC-257)	GI50 (UACC-62)
NCCNc1nc(N2CCCC2)c2nc(Cl)c(NCc3ccccc3)nc2n1	1.77 µM (inactive)	1.98 µM (inactive)	1.69 µM (inactive)	1.95	1.67 µM (inactive)	1.78 µM (inactive)	2.53 µM (inactive)	2.14 µM (inactive)	2.5 µM (inactive)	1.96 µM (inactive)	1.86 µM (inactive)	1.79 µM (inactive)	1.75 µM (inactive)	1.52 µM (inactive)	2.04 µM (inactive)	1.66 µM (inactive)	1.67 µM (inactive)	1.9 µM (inactive)	1.75 µM (inactive)
COC1(c2cccs2)c2ccccc2C(OC)(c2cccs2)c2ccccc21 (stereo not given)	35.3 µM (inactive)	78.5 µM (inactive)	85.5 µM (inactive)	> 100	42.3 µM (inactive)	54.2 µM (inactive)	0.518 µM (active)	23.9 µM (inactive)	42.9 µM (inactive)	48.5 µM (inactive)	28.3 µM (inactive)	50.5 µM (inactive)	> 100 µM (inactive)	> 100 µM (inactive)	> 100 µM (inactive)	85.7 µM (inactive)	36.8 µM (inactive)	> 100 µM (inactive)	47.3 µM (inactive)
Cc1nnc2cc(C(=O)O)c3ccccc3n2c1=O	> 10 µM (inactive)	> 10 µM (inactive)	> 10 µM (inactive)	> 10	> 10 µM (inactive)	> 10 µM (inactive)	> 10 µM (inactive)	> 10 µM (inactive)	> 10 µM (inactive)	> 10 µM (inactive)	> 10 µM (inactive)	> 10 µM (inactive)	> 10 µM (inactive)	> 10 µM (inactive)	> 10 µM (inactive)	> 10 µM (inactive)	> 10 µM (inactive)	> 10 µM (inactive)	> 10 µM (inactive)
Fc1ccc(C(OCCN2CCC3CCC(C2)N3C/C=C/c2cccnc2)c2ccc(F)cc2)cc1 (stereo not given)	5.27 µM (inactive)	13.6 µM (inactive)	1.3 µM (inactive)	10	14.2 µM (inactive)	13.4 µM (inactive)	12 µM (inactive)	12.8 µM (inactive)	9.93 µM (inactive)	12.8 µM (inactive)	9.23 µM (inactive)	13.3 µM (inactive)	4.01 µM (inactive)	13.1 µM (inactive)	10.1 µM (inactive)	12.6 µM (inactive)	11.5 µM (inactive)	3.78 µM (inactive)	12.3 µM (inactive)
CC(O)CNC(=O)Nc1c(C(F)(F)F)cc(-c2ccccc2)[nH]c1=O (stereo not given)	> 100 µM (inactive)	> 100 µM (inactive)	> 100 µM (inactive)	> 100	> 100 µM (inactive)	> 100 µM (inactive)	> 100 µM (inactive)	> 100 µM (inactive)	> 100 µM (inactive)	> 100 µM (inactive)	> 100 µM (inactive)	> 100 µM (inactive)	> 100 µM (inactive)	> 100 µM (inactive)	> 100 µM (inactive)	> 100 µM (inactive)	> 100 µM (inactive)	> 100 µM (inactive)	> 100 µM (inactive)
COc1ccc2c(c1)CN1C(=N2)CSC1c1ccccc1Cl (stereo not given)	17.9 µM (inactive)	25.2 µM (inactive)	12.8 µM (inactive)	11.7	31.6 µM (inactive)	11.3 µM (inactive)	27.9 µM (inactive)	1.66 µM (inactive)	16.3 µM (inactive)	24 µM (inactive)	24.7 µM (inactive)	17.7 µM (inactive)	14.4 µM (inactive)	19.1 µM (inactive)	17.4 µM (inactive)	27.7 µM (inactive)	23.7 µM (inactive)	13.4 µM (inactive)	17.6 µM (inactive)
CCN(CC)C1C(=O)NC1C#Cc1ccccc1 (stereo not given)	> 100 µM (inactive)	61.9 µM (inactive)	> 100 µM (inactive)	96.6	> 100 µM (inactive)	18.9 µM (inactive)	> 100 µM (inactive)	71.4 µM (inactive)	> 100 µM (inactive)	> 100 µM (inactive)	> 100 µM (inactive)	> 100 µM (inactive)	26.4 µM (inactive)	> 100 µM (inactive)	69.5 µM (inactive)	84.7 µM (inactive)	> 100 µM (inactive)	> 100 µM (inactive)	> 100 µM (inactive)
O=[N+]([O-])c1cccc2nc3ccccc3c(NCCC[N+]3([O-])CCCCC3)c12	0.438 µM (active)	0.501 µM (active)	0.143 µM (active)	16	0.927 µM (active)	0.275 µM (active)	0.82 µM (active)	0.232 µM (active)	0.255 µM (active)	0.323 µM (active)	3.06 µM (inactive)	0.179 µM (active)	0.36 µM (active)	0.39 µM (active)	0.468 µM (active)	0.41 µM (active)	3.06 µM (inactive)	0.244 µM (active)	0.272 µM (active)
O=C(CNS(=O)(=O)Cc1ccccc1)NNc1ccccc1	> 100 µM (inactive)	> 100 µM (inactive)	3.23 µM (inactive)	> 100	> 100 µM (inactive)	> 100 µM (inactive)	> 100 µM (inactive)	> 100 µM (inactive)	> 100 µM (inactive)	> 100 µM (inactive)	4.02 µM (inactive)	> 30 µM (inactive)	80 µM (inactive)	> 100 µM (inactive)	8.05 µM (inactive)	> 42.3 µM (inactive)	> 100 µM (inactive)	> 78.2 µM (inactive)	1.12 µM (active)
N#Cc1cc2c(n(C3OC(CO)C(O)C(O)C3O)c1=S)CCCCCC2 (stereo not given)	> 100 µM (inactive)	> 100 µM (inactive)	> 100 µM (inactive)	> 100	> 100 µM (inactive)	> 100 µM (inactive)	> 100 µM (inactive)	> 100 µM (inactive)	> 100 µM (inactive)	> 100 µM (inactive)	> 100 µM (inactive)	> 100 µM (inactive)	> 100 µM (inactive)	> 100 µM (inactive)	> 100 µM (inactive)	80.2 µM (inactive)	> 100 µM (inactive)	> 100 µM (inactive)	> 100 µM (inactive)
OC1(c2ccccc2)CSc2ncnn21 (stereo not given)	> 100 µM (inactive)	> 100 µM (inactive)	> 100 µM (inactive)	> 100	> 100 µM (inactive)	> 100 µM (inactive)	> 100 µM (inactive)	> 100 µM (inactive)	> 100 µM (inactive)	> 100 µM (inactive)	> 100 µM (inactive)	> 100 µM (inactive)	> 100 µM (inactive)	> 100 µM (inactive)	> 100 µM (inactive)	> 100 µM (inactive)	> 100 µM (inactive)	> 100 µM (inactive)	> 100 µM (inactive)
Cc1ccc(N2C(=O)CC(=O)N(NC(=O)C(C)Oc3ccccc3C)C2=S)cc1 (stereo not given)	> 100 µM (inactive)	> 100 µM (inactive)	> 100 µM (inactive)	> 100	> 100 µM (inactive)	> 100 µM (inactive)	> 100 µM (inactive)	> 100 µM (inactive)	> 100 µM (inactive)	> 100 µM (inactive)	> 100 µM (inactive)	> 100 µM (inactive)	> 100 µM (inactive)	> 100 µM (inactive)	> 100 µM (inactive)	> 100 µM (inactive)	> 100 µM (inactive)	> 100 µM (inactive)	> 100 µM (inactive)
C(=C/c1nnnn1-c1ccccc1)/Nc1ccccc1	39.2 µM (inactive)	17.4 µM (inactive)	33.7 µM (inactive)	21.5	25.4 µM (inactive)	24.4 µM (inactive)	31.8 µM (inactive)	23.7 µM (inactive)	27.2 µM (inactive)	31.7 µM (inactive)	26.2 µM (inactive)	2.64 µM (inactive)	14.5 µM (inactive)	30.8 µM (inactive)	37.3 µM (inactive)	29.6 µM (inactive)	34.4 µM (inactive)	36.5 µM (inactive)	20.2 µM (inactive)
COc1ccc2c(c1)-c1c(c3ccccc3n1CCN1CCCCC1)CC2	16.9 µM (inactive)	23.1 µM (inactive)	13.2 µM (inactive)	13.3	8.79 µM (inactive)	21.8 µM (inactive)	9.82 µM (inactive)	18.3 µM (inactive)	5.75 µM (inactive)	17.4 µM (inactive)	5.52 µM (inactive)	5.73 µM (inactive)	14.6 µM (inactive)	22.4 µM (inactive)	26.1 µM (inactive)	18.9 µM (inactive)	20.3 µM (inactive)	22.4 µM (inactive)	16.3 µM (inactive)
CC(C)OC(=O)c1ccc(CCC2=CC(=O)C=CC2=O)cc1	4.22 µM (inactive)	5.25 µM (inactive)	8.85 µM (inactive)	8.81	20.3 µM (inactive)	5.05 µM (inactive)	13 µM (inactive)	13.2 µM (inactive)	12 µM (inactive)	13.7 µM (inactive)	29.4 µM (inactive)	19.1 µM (inactive)	15 µM (inactive)	11.3 µM (inactive)	4.69 µM (inactive)	2.17 µM (inactive)	9.73 µM (inactive)	12.1 µM (inactive)	14.9 µM (inactive)
